Patent US20260124170A1, “PHARMACEUTICAL COMPOSITION COMPRISING METABOLITE OF ENAVOGLIFLOZIN, AND USE THEREOF” (DAEWOONG PHARMACEUTICAL CO., LTD., priority 2022, published 2026)
Where “and” joins values, the source holds several entries; their conditions need not be identical. Equal entries are not always repeated. Marks after values point to notes of the source that are not given here.

What was measured:
SGLT2 = target: T1, SGLT2 (Homo sapiens, UniProt P31639); experiment: Whole-cell patch clamp glucose current, binding and dissociation, CHO-SGLT2; assay type: cell-based; settings: for Dissociation degree T1/2, off (s), SGLT2: washout
T1 construct: expressed in transfected cells
T1 sequence (P31639 1-672): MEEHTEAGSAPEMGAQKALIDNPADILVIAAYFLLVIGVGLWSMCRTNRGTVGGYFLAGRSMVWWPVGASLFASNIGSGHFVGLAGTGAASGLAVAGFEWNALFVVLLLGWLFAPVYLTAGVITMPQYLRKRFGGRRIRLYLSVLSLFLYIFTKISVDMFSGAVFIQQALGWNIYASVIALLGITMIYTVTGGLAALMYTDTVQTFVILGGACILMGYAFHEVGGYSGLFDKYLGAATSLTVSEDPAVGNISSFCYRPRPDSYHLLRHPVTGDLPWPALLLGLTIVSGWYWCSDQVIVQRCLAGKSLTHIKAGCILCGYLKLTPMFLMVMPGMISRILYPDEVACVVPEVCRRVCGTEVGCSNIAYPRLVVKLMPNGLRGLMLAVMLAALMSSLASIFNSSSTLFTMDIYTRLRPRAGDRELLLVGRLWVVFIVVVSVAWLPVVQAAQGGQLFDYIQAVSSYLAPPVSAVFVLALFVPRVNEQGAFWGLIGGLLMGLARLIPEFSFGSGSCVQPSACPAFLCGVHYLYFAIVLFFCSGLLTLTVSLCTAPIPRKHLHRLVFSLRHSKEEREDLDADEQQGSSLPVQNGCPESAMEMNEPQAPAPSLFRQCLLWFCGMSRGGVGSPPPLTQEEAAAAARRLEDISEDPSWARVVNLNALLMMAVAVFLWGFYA
Method: (§1) When SGLT1- and SGLT2-overexpressing cell lines (CHO-SGLT1, CHO-SGLT2 stable cells) were cultured to reach 60% confluency, the cells were treated with 0.05% trypsin to detach the cells from the bottom of the plate, suspended in 200 μL of culture medium, and used at room temperature.
(§2) Glucose reabsorption is induced by the Na^+ electrochemical potential gradient in the kidneys via SGLT2, and glucose diffuses across the cell membrane into the blood via glucose transporter 2 (GLUT-2), which enables facilitated glucose transport. While one Na^+ ion is absorbed per glucose molecule through SGLT2, two Nations are absorbed per glucose molecule through SGLT1. Therefore, by varying the composition of the buffer, only the glucose current was recorded, excluding the Na^+ current.
(§3) The experiment was conducted as described below.
(§4) 1) Using a Narishige puller, a glass micropipette was made in two stages of 62.7° C. and 57° C., filled with an internal solution (145 mM CsCl, 5 mM NaCl, 10 mM HEPES, 11 mM ethylene glycol-bis(2-aminoethylether)-N,N,N′,N′-tetraacetic acid (EGTA), pH 7.2), and then inserted into the Ag/AgCl2 electrode of the patch clamp head-stage.
(§5) 2) SGLT1 or SGLT2 cells were seeded on a chamber which was coated with poly-L-lysine in advance, and then an external solution (150 mM NaCl, 10 mM HEPES, 1 mM CaCl2), 1 mM MgCl2, pH 7.4) was flowed to ensure that the cells were sufficiently submerged. A temperature control device was used to maintain the temperature of the chamber at 36.5±0.5° C.
(§6) 3) Using a micromanipulator, the glass micropipette was attached to the cell membrane to create a giga-ohm seal, which was then ruptured to detach the cell membrane (whole-cell mode, 3 to 5 MΩ).
(§7) 4) The cells were fixed at −60 mV (holding potential), and the current [I^total current (Na^+/Glucose current (pA))] was measured in a gap-free data acquisition mode.
(§8) 5) The external solution was continuously flowed into the chamber containing the cells, and the current (I^total) was recorded for about 30 seconds to 1 minute (stabilization), and then the external solution with added glucose (Na^+/Glucose external) (150 mM NaCl, 10 mM HEPES, 1 mM CaCl2), 1 mM MgCl2, 100 mM glucose, pH 7.4) was flowed to record the glucose current (I^glucose). Then, the cells were exposed to the external solution with added glucose containing one concentration of the compound for two minutes, and the glucose current suppressed by the compound was recorded.
(§9) 7) After confirming the recovery of the current, the solution was replaced with a sodium-free external solution (Na^+-free external) (150 mM Choline-Cl, 1 mM CaCl2), 1 mM MgCl2, pH 7.4) and the Na^+ current was recorded. After the current was stabilized, the solution was replaced with the external solution to record the current in the resting state when the cells were not stimulated, thereby securing the reliability of the experimental system.
(§10) For statistical analysis of data, pCLAMP10.4 (Molecular Devices, LLC, San Jose, CA, USA) or Origin6.0 (OriginLab, Northampton, MA, USA) was used.
(§11) The test results were expressed as the mean±SD of the mean. Statistical significance was verified using the nonparametric Kruskal-Wallis test using Statistical Package for the Social Sciences (SPSS) for Windows (version 26.0, IBM Corp., Armonk, NY, USA). The significance level was set at p<0.05.

SGLT1 = target: T2, SGLT1 (Homo sapiens, UniProt P13866); experiment: Whole-cell patch clamp glucose current, binding and dissociation, CHO-SGLT1; assay type: cell-based; settings: for Dissociation degree T1/2, off (s), SGLT1: washout
T2 construct: expressed in transfected cells
T2 sequence (P13866 1-664): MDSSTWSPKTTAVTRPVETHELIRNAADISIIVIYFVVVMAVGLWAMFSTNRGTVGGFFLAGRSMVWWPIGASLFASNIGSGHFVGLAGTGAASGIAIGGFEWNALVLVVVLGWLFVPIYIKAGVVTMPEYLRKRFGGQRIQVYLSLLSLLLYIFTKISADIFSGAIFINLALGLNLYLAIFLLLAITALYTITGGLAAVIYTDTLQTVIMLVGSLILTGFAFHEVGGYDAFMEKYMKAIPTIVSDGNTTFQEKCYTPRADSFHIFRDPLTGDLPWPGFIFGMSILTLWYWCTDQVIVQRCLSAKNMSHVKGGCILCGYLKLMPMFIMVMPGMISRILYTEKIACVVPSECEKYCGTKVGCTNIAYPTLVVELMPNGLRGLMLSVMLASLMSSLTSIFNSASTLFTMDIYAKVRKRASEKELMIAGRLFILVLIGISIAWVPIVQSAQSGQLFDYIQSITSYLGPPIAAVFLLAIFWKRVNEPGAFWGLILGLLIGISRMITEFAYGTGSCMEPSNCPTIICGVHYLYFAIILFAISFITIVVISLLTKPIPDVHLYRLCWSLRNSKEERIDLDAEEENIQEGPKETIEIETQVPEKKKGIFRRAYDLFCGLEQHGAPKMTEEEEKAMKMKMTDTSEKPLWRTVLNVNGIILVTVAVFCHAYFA
Method: as §1, §2, §3, §4, §5, §6, §7, §8, §9, §10, §11

SMILES	Dissociation from SGLT2, times slower than dapagliflozin (SGLT2; ratio of T1/2,off)	Binding affinity T1/2, on (s), SGLT2 (SGLT2; treatment concentration 100 μM) [s]	Dissociation degree T1/2, off (s), SGLT2 (SGLT2; treatment concentration 100 μM)	Dissociation degree T1/2, off (s), SGLT2 (SGLT2; treatment concentration 100 μM, listed as enavogliflozin) [s]	Binding affinity T1/2, on (s), SGLT1 (SGLT1; treatment concentration 5 μM) [s]	Dissociation degree T1/2, off (s), SGLT1 (SGLT1; treatment concentration 5 μM)	Dissociation degree T1/2, off (s), SGLT1 (SGLT1; treatment concentration 5 μM, listed as enavogliflozin) [s]	Dissociation rate from SGLT2, times slower than enavogliflozin (SGLT2; ratio of T1/2,off) [times]	Binding affinity T1/2, on (s), SGLT2 (SGLT2; treatment concentration 200 μM)	Dissociation degree T1/2, off (s), SGLT2 (SGLT2; treatment concentration 200 μM)	Dissociation from SGLT1, times slower than dapagliflozin (SGLT1; ratio of T1/2,off) [times]	Dissociation from SGLT1, times slower than enavogliflozin (SGLT1; ratio of T1/2,off) [times]	Binding affinity T1/2, on (s), SGLT1 (SGLT1; treatment concentration 20 μM) [s]	Dissociation degree T1/2, off (s), SGLT1 (SGLT1; treatment concentration 20 μM)
OC[C@H]1O[C@@H](c2cc(Cc3ccc(C4CC4)cc3)c(Cl)c3c2CCO3)[C@H](O)[C@@H](O)[C@@H]1O [Enavogliflozin, (2S,3R,4R,5S,6R)-2-(7-chloro-6 (4-cyclopropylbenzyl)-2,3-dihydrobenzofuran-4-yl)-6-(hydroxymethyl)tetrahydro-2H-pyran-3,4,5-triol]	about 2.8 times	29.5 ± 5.5	745.5^+, # s	745.5	11.5 ± 4.2	34.9 ± 9.6 s	34.9	–	–	–	–	–	–	–
OC[C@H]1O[C@@H](c2cc(Cc3ccc(C4CC4)cc3)c(Cl)c3c2CC(O)O3)[C@H](O)[C@@H](O)[C@@H]1O (stereo partly drawn) [M1, (2S,3R,4R,5S,6R)-2-(7-chloro-6-(4-cyclopropylbenzyl)-2-hydroxy-2,3-dihydrobenzofuran-4-yl)-6-(hydroxymethyl)tetrahydro-2H-pyran-3,4,5-triol]	–	–	–	–	18.8 ± 4.1	59.8 s and 59.8 ± 11.5*^, + s	–	2	52.5 ± 3.8*^, + s	369.9 s and 369.9 ± 56.5 ^ s	1.96	1.7	–	–
OC[C@H]1O[C@@H](c2cc(Cc3ccc(C4(O)CC4)cc3)c(Cl)c3c2CCO3)[C@H](O)[C@@H](O)[C@@H]1O [M2, (2S,3R,4R,5S,6R)-2-(7-chloro-6-(4-(1-hydroxycyclopropyl)benzyl)-2,3-dihydrobenzofuran-4-yl)-6-(hydroxymethyl)tetrahydro-2H-pyran-3,4,5-triol]	–	–	–	–	–	–	–	1.38	51.8 ± 10.5*^, + s	540.4 s and 540.4 ± 217.0^+, # s	–	–	15.7 ± 6.5	23.5 s and 23.5 ± 10.4 s
